According to the C3SDB collision cross section collection:
Several values for one entry are separate records, joined by “and”; a condition that tells them apart may be missing. Identical values can stand only once. Values belong to the compound of their own block, whether it stands above or below them.

Assays:
[1] = instrument: TW, calibrated with phosphatidylcholines (ESI+) and phosphatidylethanolamines (ESI-), doubly charged cardiolipins calibrated with poly-DL-…
[2] = instrument: DT, single field, calibrated with Agilent tune mix (Agilent)
[3] = instrument: DT, single field
[4] = instrument: DT, stepped-field

Compound: CCCCCC/C=C\CCCCCCCC(=O)OC[C@H](COP(=O)(O)OCCNC(=O)CCCCCCCCCCCCCCC)OC(=O)CCCCCCC/C=C\CCCCCCCCCC [AcylPE(52:2)]
collision cross section (N2) ([1]; [M-H]-): 328.83 Å²

Compound: CCCCCC/C=C\CCCCCCCC(=O)OCC(COP(=O)(O)OCCN)OC(=O)CCCCCCCCCCCCC (configuration not stated) [PE(30:1)]
collision cross section (N2) ([1]; [M+H]+): 260.6 Å²
collision cross section (N2) ([1]; [M-H]-): 248.78 Å²

Compound: CCCCCCCC/C=C\CCCCCCCC(=O)OCC(COP(=O)(O)OCCN)OC(=O)CCCCCCC/C=C\CCCCCCCC (configuration not stated) [PE(36:2)]
collision cross section (N2) ([1]; [M+H]+): 276.82 Å²
collision cross section (N2) ([1]; [M-H]-): 269.17 Å²

Compound: CCCCCCCC/C=C/CCCCCCCC(=O)OC[C@@H](O)COP(=O)(O)OCC(O)CO (some centres not stated) [LPG(18:1)]
collision cross section (N2) ([1]; [M-H]-): 217.72 Å²

Compound: CCCC/C=C\CCCCCCCC(=O)O[C@H](COC(=O)CCCCCCC/C=C\CCCCCC)COP(=O)(O)OC[C@@H](O)COC(=O)CCCCCCCCCCCCCCC [AcylPG(46:2)]
collision cross section (N2) ([1]; [M-H]-): 312.53 Å²

Compound: CCCCCCCCCCCCCCCC(=O)OCC(COP(=O)(O)OCCN)OC(=O)CCCCCCCCCCCCC (configuration not stated) [PE(30:0)]
collision cross section (N2) ([1]; [M+H]+): 265.85 Å²
collision cross section (N2) ([1]; [M-H]-): 251.05 Å²

Compound: CCCCCC/C=C\CCCCCCCC(=O)OCC(COP(=O)(O)OCC(O)COP(=O)(O)OCC(COC(=O)CCCCCCCC1CC1CCCCCCCC)OC(=O)CCCCCCC/C=C\CCCCCC)OC(=O)CCCCCCC/C=C\CCCCCCCC (configuration not stated) [CL(69:4)]
collision cross section (N2) ([1]; [M-2H]2-): 409.28 Å²

Compound: CCCCCCC1CC1CCCCCCCC(=O)OC[C@@H](O)COP(=O)(O)OCC(O)CO (some centres not stated) [LPG(17:1)]
collision cross section (N2) ([1]; [M-H]-): 214.26 Å²

Compound: CCCCCCCC/C=C\CCCCCCCC(=O)OC(COC(=O)CCCCCCCCCCCCCCC)COP(=O)(O)OCC(O)COP(=O)(O)OCC(COC(=O)CCCCCCCC1CC1CCCCCCCC)OC(=O)CCCCCCCCCCCCCCC (configuration not stated) [CL(69:2)]
collision cross section (N2) ([1]; [M-2H]2-): 408.93 Å²

Compound: CCCCCCCCC1CC1CCCCCCCC(=O)O[C@H](CO)COP(=O)([O-])OCC[NH3+] (some centres not stated) [LPE(0:0/19:1)]
collision cross section (N2) ([1]; [M+H]+): 221.32 Å²
collision cross section (N2) ([1]; [M+Na]+): 226.07 Å²
collision cross section (N2) ([1]; [M-H]-): 214.39 Å²

Compound: CCCCCC/C=C\CCCCCCCC(=O)OC[C@H](COP(=O)(O)OCCNC(=O)CCCCCCCCCCCCCCC)OC(=O)CCCCCCCC1CC1CCCCCCCC (some centres not stated) [AcylPE(51:2)]
collision cross section (N2) ([1]; [M-H]-): 325.65 Å²

Compound: CCCCCC/C=C\CCCCCCCC(=O)OC[C@H](COP(=O)(O)OC[C@@H](O)COC(=O)CCCCCCCCCCCCCCC)OC(=O)CCCCCCCCCCCCC [AcylPG(46:1)]
collision cross section (N2) ([1]; [M-H]-): 310.71 Å²

Compound: CCCCCCCCCCCCCCCC(=O)OCC(COP(=O)(O)OCCN)OC(=O)CCCCCCCC1CC1CCCCCC (configuration not stated) [PE(33:1)]
collision cross section (N2) ([1]; [M+H]+): 273.6 Å²
collision cross section (N2) ([1]; [M-H]-): 259.91 Å²

Compound: CCCCCC/C=C\CCCCCCCC(=O)OC[C@H](COP(=O)(O)OCCNC(=O)CCCCCCCCCCCCCCC)OC(=O)CCCCCCCCCCCCC [AcylPE(46:1)]
collision cross section (N2) ([1]; [M-H]-): 310.12 Å²

Compound: CCCCCC/C=C\CCCCCCCC(=O)OC[C@H](COP(=O)(O)OCCNC(=O)CCCCCCCCCCCCCCC)OC(=O)CCCCCCCCCCCCCC [AcylPE(47:1)]
collision cross section (N2) ([1]; [M+Na]+): 321.4 Å²
collision cross section (N2) ([1]; [M-H]-): 313.42 Å²

Compound: CCCCCCCCCCCCCCC(=O)O[C@H](CO)COP(=O)(O)OCC(O)CO (some centres not stated) [LPG(15:0)]
collision cross section (N2) ([1]; [M-H]-): 208.96 Å²

Compound: CCCCC1CC1CCCCCCCC(=O)O[C@H](CO)COP(=O)(O)OCC(O)CO (some centres not stated) [LPG(15:1)]
collision cross section (N2) ([1]; [M-H]-): 206.44 Å²

Compound: CCCCCCCCCCCCCCCC(=O)OCC(COP(=O)(O)OCC(O)CO)OC(=O)CCCCCCCCCCCCC (configuration not stated) [PG(30:0)]
collision cross section (N2) ([1]; [M+Na]+): 272.75 Å²
collision cross section (N2) ([1]; [M-H]-): 258.02 Å²

Compound: CCCCCC/C=C\CCCCCCCC(=O)OC[C@H](COP(=O)(O)OC[C@@H](O)COC(=O)CCCCCCCCCCCCCCC)OC(=O)CCCCCCCC1CC1CCCCCC (some centres not stated) [AcylPG(49:2)]
collision cross section (N2) ([1]; [M-H]-): 318.87 Å²

Compound: CCCCCC/C=C\CCCCCCCC(=O)OC[C@H](O)COP(=O)(O)OC[C@@H](COC(=O)CCCCCCC/C=C\CCCCCC)OC(=O)CCCCCCCC1CC1CCCCCCCC (some centres not stated) [AcylPG(51:3)]
collision cross section (N2) ([1]; [M-H]-): 325 Å²

Compound: CCCCCCCC/C=C\CCCCCCCC(=O)OC(COC(=O)CCCCCCCCCCCCCCCCC)COP(=O)(O)O (configuration not stated) [PA(36:1)]
collision cross section (N2) ([1]; [M-H]-): 261.81 Å²

Compound: CCCCCC/C=C/CCCCCCCC(=O)OC[C@@H](O)COP(=O)([O-])OCC[NH3+] [LPE(16:1/0:0)]
collision cross section (N2) ([1]; [M+H]+): 206.28 Å²
collision cross section (N2) ([1]; [M+Na]+): 211.09 Å²
collision cross section (N2) ([1]; [M-H]-): 203.75 Å²

Compound: CCCCC/C=C\CCCCCCCC(=O)O[C@H](COC(=O)CCCCCCC/C=C\CCCCCC)COP(=O)([O-])OCC[N+](C)(C)C [PC(31:2)]
collision cross section (N2) ([3]; [M+H]+): 272.28 Å²
collision cross section (N2) ([4]; [M+K]+): 283.6 Å²

Compound: CCCCC/C=C\C/C=C\CCCCCCCCCC(=O)O[C@H](COC(=O)CCCCCCCCCCCC)COP(=O)([O-])OCC[N+](C)(C)C [PC(33:2)]
collision cross section (N2) ([2]; [M+H]+): 279.8 Å²
collision cross section (N2) ([3]; [M+H]+): 279.23 Å²
collision cross section (N2) ([4]; [M+K]+): 291.5 Å²

The next lines start with the values.

collision cross section (N2) ([1]; [M+Na]+): 275.15 Å²
collision cross section (N2) ([1]; [M-H]-): 262.68 Å²
Compound: CCCCCC/C=C\CCCCCCCC(=O)OCC(COP(=O)(O)OCC(O)CO)OC(=O)CCCCCCCCCCCCCCC (configuration not stated) [PG(32:1)]

collision cross section (N2) ([2]; [M+NH4]+): 312.1 Å²
collision cross section (N2) ([3]; [M+NH4]+): 312.43 Å² and 314.2 Å² and 317.35 Å²
collision cross section (N2) ([3]; [M+Na]+): 313.17 Å²
Compound: CCCC/C=C\C/C=C\CCCCCCCC(=O)O[C@@H](COC(=O)CCCCCCC/C=C\C/C=C\CCCCC)COC(=O)CCCCCCCCCCCCCCC [TG(51:4)]

collision cross section (N2) ([2]; [M+NH4]+): 323.6 Å²
collision cross section (N2) ([3]; [M+Na]+): 320.83 Å² and 322.81 Å²
Compound: CCCCCCC/C=C\CCCCCCCC(=O)O[C@H](COC(=O)CCCCCCCCCCCCCCCC)COC(=O)CCCCCCCCCCCCCCCCC [TG(52:1)]

collision cross section (N2) ([2]; [M+NH4]+): 330.8 Å²
collision cross section (N2) ([3]; [M+NH4]+): 327.84 Å² and 330.13 Å² and 333.95 Å²
collision cross section (N2) ([3]; [M+Na]+): 329.41 Å²
Compound: CCCCC/C=C\C/C=C\CCCCCCCCCCCC(=O)OC[C@@H](COC(=O)CCCCCCCCCCC)OC(=O)CCCCCCCCCCC/C=C\C/C=C\CCCCC [TG(56:4)]

collision cross section (N2) ([2]; [M+NH4]+): 314.7 Å²
collision cross section (N2) ([3]; [M+Na]+): 312.33 Å² and 314.31 Å²
Compound: CCCCC/C=C\C/C=C\C/C=C\CCCCC(=O)O[C@H](COC(=O)CCCCCCCCCCC)COC(=O)CCCCCCCCCCC/C=C\C/C=C\CCCCC [TG(52:5)]

collision cross section (N2) ([2]; [M+NH4]+): 337.6 Å²
collision cross section (N2) ([3]; [M+NH4]+): 342.22 Å² and 344.48 Å²
Compound: CCCC/C=C\C/C=C\CCCCCCCC(=O)OC[C@H](COC(=O)CCCCCCCCCCCCCCCCCCCCC)OC(=O)CCCCCCCCC/C=C\CCCCCCCC [TG(59:3)]

collision cross section (N2) ([2]; [M+HCOO]-): 297.5 Å²
collision cross section (N2) ([2]; [M+H]+): 300.7 Å²
collision cross section (N2) ([2]; [M+Na]+): 300.5 Å²
collision cross section (N2) ([3]; [M+H]+): 299.29 Å²
collision cross section (N2) ([4]; [M+Na]+): 303.9 Å²
Compound: CCCCCCCCCCCCC=CC[C@@H](O)[C@H](COP(=O)([O-])OCC[N+](C)(C)C)NC(=O)CCCCCCCCCCCCCCCCCCCCC [SM(40:1)]

collision cross section (N2) ([2]; [M+NH4]+): 308.3 Å²
collision cross section (N2) ([3]; [M+NH4]+): 307.53 Å² and 309.7 Å² and 313.52 Å²
collision cross section (N2) ([3]; [M+Na]+): 306.66 Å² and 308.69 Å²
Compound: CCCCCCCC/C=C\CCCCCCCC(=O)OC[C@@H](COC(=O)CCCCCCCCCCC)OC(=O)CCCCCCC/C=C\CCCCCCCC [TG(48:2)]

collision cross section (N2) ([3]; [M+H]+): 308.58 Å²
collision cross section (N2) ([4]; [M+Na]+): 312.5 Å²
Compound: CCCCCCCCCCCCC=CC[C@@H](O)[C@H](COP(=O)([O-])OCC[N+](C)(C)C)NC(=O)CCCCCCCCCCCCCCCCCCCCCCCC [SM(43:1)]

collision cross section (N2) ([1]; [M+Na]+): 278.38 Å²
collision cross section (N2) ([1]; [M-H]-): 267.97 Å²
Compound: CCCCCC/C=C\CCCCCCCC(=O)OCC(COP(=O)(O)OCC(O)CO)OC(=O)CCCCCCC/C=C\CCCCCCCC (configuration not stated) [PG(34:2)]

collision cross section (N2) ([2]; [M+NH4]+): 292.9 Å²
collision cross section (N2) ([3]; [M+NH4]+): 294.01 Å² and 295.78 Å² and 296.41 Å²
collision cross section (N2) ([3]; [M+Na]+): 292.91 Å² and 295.34 Å²
Compound: CCCCC/C=C\C/C=C\CCCCCCCCCC(=O)OC[C@@H](COC(=O)CCCCCCCCCCC)OC(=O)CCCCCCCCCCC [TG(44:2)]

collision cross section (N2) ([2]; [M+NH4]+): 315.8 Å²
collision cross section (N2) ([3]; [M+Na]+): 313.04 Å² and 315.16 Å²
Compound: CCCCCCCCC/C=C\CCCCCCCC(=O)OC[C@@H](COC(=O)CCCCCCCCCCC)OC(=O)CCCCCCC/C=C\CCCCCCCCC [TG(50:2)]

collision cross section (N2) ([2]; [M+NH4]+): 334.6 Å²
collision cross section (N2) ([3]; [M+NH4]+): 334.35 Å²
Compound: CC/C=C\C/C=C\C/C=C\C/C=C\C/C=C\CCCC(=O)O[C@H](COC(=O)CCCCCCCCCCCCCCC)COC(=O)CCCCCCCCCCCCCCCCCCCCC [TG(58:5)]

collision cross section (N2) ([2]; [M+NH4]+): 314.6 Å²
collision cross section (N2) ([3]; [M+NH4]+): 314.4 Å² and 316.33 Å² and 320.05 Å²
collision cross section (N2) ([3]; [M+Na]+): 313.29 Å² and 315.37 Å²
Compound: CCCCC/C=C\CCCCCCCC(=O)OC[C@H](COC(=O)CCCCCCC/C=C\CCCCCCCC)OC(=O)CCCCCCC/C=C\CCCCCCCC [TG(51:3)]

collision cross section (N2) ([2]; [M+NH4]+): 329.2 Å²
collision cross section (N2) ([3]; [M+NH4]+): 332.67 Å² and 335.01 Å²
Compound: CCCCC/C=C\C/C=C\CCCCCCCCCC(=O)O[C@H](COC(=O)CCCCCCCCCCCC)COC(=O)CCCCCCCCCCCCCCCCCCCCC [TG(55:2)]

collision cross section (N2) ([2]; [M+NH4]+): 285 Å²
collision cross section (N2) ([3]; [M+Na]+): 282.67 Å² and 283.77 Å²
Compound: CCCCCCCCCCCCCCCC(=O)OC[C@@H](COC(=O)CCCCCCCCCCC)OC(=O)CCCCCCCCCCC [TG(40:0)]
